Test results taken from publication PMC10608315, “Organic Synthesis of New Secosteroids from Fucosterol, Its Intestinal Absorption by Caco-2 Cells, and Simulation of the Biological Activities of Vitamin D” (Marine Drugs, 2023).
Like-named read-outs stand apart in the source and are kept apart here.

Experiments:
Caco-2 cells [1] = settings: human, Caco-2, 24 h, 1 µM
[2] = design: method as in PMID 9598513, PMID 10389917; settings: potential cancer therapy; cited from earlier work
Caco-2 cells [3] = assay: Intestinal absorption of mixed micellar secosteroid by differentiated Caco-2 monolayers in Transwell plates (remaining, uptake, transport); settings: summary of Caco-2 uptake and transport, 24 h
Caco-2 = tested on: Caco-2; design: method as in PMID 9184144; settings: cholesterol versus sitosterol; cited from earlier work
human breast cancer cell = tested on: human breast cancer cell; design: method as in PMID 10762752; settings: compared with 1,25-di(OH)-vitamin D3; cited from earlier work
[4] = tested on: chemically induced cancers; settings: cited from earlier work
[5] = design: method as in PMID 12628523; settings: cited from earlier work
rickets = settings: rats; cited from earlier work

C=C1CCC(O)CC1=CC=C1CCCC2(C)C1CCC2C(C)CCC(=CC)C(C)C [Compound 3, (5Z,7E,24E)-(3S)-9,10-seco-5,7,10(19),24(24^1)-stigmastatetraen-3-ol]
Concentration of micellar secosteroid remaining on the apical side (Caco-2 cells [1]): significantly higher concentrations than vitamin D3 | Intestinal absorption (uptake and transport) ranking (Caco-2 cells [1]): compound 4 ≥ vitamin D3 ≥ compound 3

C=C1C(=CC=C2CCCC3(C)C2CCC3C(C)CCCC(C)(C)O)CC(O)CC1O (stereo not shown) [1,25-di(OH)-Vitamin D3]
Side effects in clinical trials [2]: side effects like hypercalcemia [75] and hypercalciuria

C=C1CC[C@H](O)C/C1=C/C=C1\CCC[C@]2(C)[C@@H]([C@H](C)CCCC(C)C)CC[C@@H]12 [Vitamin D3, cholecalciferol]
Intestinal absorption (uptake and transport) ranking (Caco-2 cells [3]): compound 4 ≥ vitamin D3 ≥ compound 3

CC(C)CCC[C@@H](C)[C@H]1CC[C@H]2[C@@H]3CC=C4C[C@@H](O)CC[C@]4(C)[C@H]3CC[C@]12C [cholesterol]
Uptake and transport by Caco-2 (Caco-2): higher for cholesterol than for sitosterol

C=C1/C(=C\C=C2/CCC[C@]3(C)[C@@H]([C@H](C)CC[C@@H](CC)C(C)C)CC[C@@H]23)C[C@@H](O)C[C@@H]1O [1-OH-vitamin D5]
Inhibition of human breast cancer cell growth (human breast cancer cell): as effective as 1,25-di(OH)-vitamin D3 | Effectiveness compared with 1,25-di(OH)-vitamin D3 [4]: less effective than 1,25-di(OH)-vitamin D3 | Treatment of chemically induced cancers ([4]; mice and rats): effectively treated | Side effects like weight loss and disruptions to calcium levels [5]: markedly fewer side effects

C=C(C)C(=CC)CCC(C)C1CCC2C(=CC=C3CC(O)CCC3=C)CCCC21C [Compound 4, (5Z,7E,24E)-(3S)-9,10-seco-5,7,10(19),24(24^1),25(27)-stigmastapentaen-3-ol]
Concentration of micellar secosteroid remaining on the apical side (Caco-2 cells [1]): significantly higher concentrations than vitamin D3 | Intestinal absorption (uptake and transport) ranking (Caco-2 cells [1]): compound 4 ≥ vitamin D3 ≥ compound 3 | Secosteroid transported from the monolayer into the basolateral medium (Caco-2 cells [1]): No significant deviation was observed between vitamin D3 and compound 4

C=C1CCC(O)C/C1=C/C=C1\CCCC2(C)C1CCC2C(C)CCC(CC)C(C)C (stereo not shown) [Vitamin D5]
Anti-rickets activity (rickets): very low anti-rickets activity
